From patent US6706686B2, “Inhibition of histone deacetylase as a treatment for cardiac hypertrophy” (The Regents of the University of Colorado, priority 2001, dated 2004)
“Also recorded” adds a separate entry of the source.

What was measured:
[1] = system: CMV-Lac Z reporter in neonatal rat cardiomyocytes; test: CMV-Lac Z reporter (specificity control); format: cell-based; conditions: inhibitor alone or together with phenylephrine
Procedure: (§1) FIGS. 3A-D. HDAC inhibitors block the activation of ANF reporter by phenylphrine without cytotoxicity. Neonatal rat cardiomyocytes were co-transfected with a total of 1 μg of the mouse 3 kb ANF promoter fragment and CMV-Lac Z plasmids. (FIG. 3A) The ANF promoter is minimally active in unstimulated cardiomyocytes. […] (FIG. 3B) Lac Z expression by the constitutive promoter CMV. Treatment with HDAC inhibitors augmented CMV activity with and without phenylephrine co-treatment. (FIGS. 3C and 3D) The graphs show the measurements of adenylate kinase activity remains constant in the medium after […] of culturing cardiomyocytes in the absence or presence of hypertrophic stimulants FBS, PE or ET-1.
(§2) Transcription assay. Twenty-four hours after plating, cells were transfected with total of 1 μg/ml for 5 hrs using Lipofectamine Plus reagent (Invitrogen, Carlsbad, Calif.). Transfected cells were incubated 24 hrs then treated for an additional 24 hrs. Cells were lysed and their lysates assayed with the Luciferase Assay System (Promega, Madison, Wis.) for luminescence using Lucysoft 2 luminometer (Rosys Anthos, New Castle, Del.).

[2] = system: ANF, αSK-actin, αMyHC, βMyHC RNA in cardiomyocytes; test: RNA dot blot of fetal gene program; format: cell-based, rat; conditions: phenylephrine 100 μM, TSA 85 nM, sodium butyrate 5 mM, HC-toxin 5 ng/ml
Procedure: FIGS. 5A-B. Treatment of cardiomyocytes with HDAC inhibitors blocks the fetal gene program associated with cardiomyocyte hypertrophy. […] The graphs represent three or more independent experiments.
Dot Blot analysis. Total RNA was isolated from cardiomyocytes that were either untreated, treated with phenylephrine, treated with TSA, or co-treated with phenylephrine and TSA. One microgram of RNA was blotted onto Nitrocellulose (Bio-Rad, Hercules, Calif.) and hybridized at 50° C. for 14 hrs with end-labeled oligos. (ANF, 5′-[…]-3, SEQ ID NO 1; αSK actin5′-[…]-3′, SEQ ID NO2; αMyHC,5′[…]-3′, SEQ ID NO 3; βMyHC5′-[…]-3′, SEQ ID NO 4; GAPDH5′-[…]-3′, SEQ ID NO 5). The blots were washed twice in 2×SSC/0.5% SDS solution and exposed to film (Kodak, Rochester, N.Y.) or phosphoimager (Amersham Bioscience, Sunnyvale, Calif.). The intensity of the hybridization of the probes was measured using ImageQuant® (Amersham Bioscience, Sunnyvale, Calif.).

[3] = system: ANF promoter in neonatal rat cardiomyocytes; test: ANF promoter transcription (luciferase) assay; format: cell-based; conditions: for activation of ANF promoter by phenylephrine: phenylephrine 100 μM, TSA 85 nM, NaBut 5 mM, HC-toxin 5 ng/ml; for ANF promoter activity, inhibitor alone: unstimulated cardiomyocytes
Procedure: as §1
Cardiomyocyte isolation. Hearts were harvested from 15-day timed-pregnant female Sprague-Dawley rats (Harlan, Houston, Tex.). After mincing in phosphate-buffered saline, cardiomyocytes were isolated from successive digestion fractions of 0.1% (w/v) Pancreatin (Sigma, St. Louis, Mo.) solution. Fractions were collected; resuspended in plating medium, pooled; and then plated for 2 hours to separate fibroblasts from cardiomyocyte population. Suspended cells were recollected and plated in 6-well dishes at 1×10^6 cells/well for transfection and immunofluorescence experiments, and 2×10^6 cells in 10 cm dishes for RNA analysis.
as §2

transformed cells = conditions: Marks et al. (2000); cited from earlier work
HDAC = conditions: Marks et al. (2000); cited from earlier work
cardiomyocytes = test: Protein synthesis (tritiated leucine, S6 ribosomal protein); format: cell-based, rat
Procedure: FIG. 6. The effects of TSA treatment on the reorganization of the sarcomeres and protein synthesis. […] The graphs on the right show the content of S6 ribosome protein in cardiomyocytes after 24 hours co-treatment with PE and increasing concentrations of TSA or with serum and increasing concentrations of TSA.
Protein synthesis. Cardiomyocytes were incubated with (1.0 μCi/ml; 172 Ci/mmol sp. activity) tritiated-leucine (ICN Biochemicals, Inc., Irvine, Calif.) in treated RPMI media (Invitrogen, Carlsbad, Calif.). After 6 hrs incubation, the cells were washed twice with 1× PBS, then incubated in 10% TCA on ice for 30 min. Afterwards, the cells were washed twice with 5% TCA, once with water, and then lysed in […]. Lysates were measured in one-sixth volume of scintillation fluid by a scintillation counter (Beckman, Fullerton, Calif.).
S6 Ribosomal protocol. After blocking, cells were incubated in 1% BSA/1× PBS containing 50 μg/ml anti-S6 protein (Cell Signaling, […]) for 1 hr. After washing, the cells were incubated with IgG-HRP (Jackson Labs, […]) at a 1:400 dilution. The cells were then washed twice in 1% BSA/1× PBS, in 1× PBS, then blotted dry. Luminol (Pierce, Rockford, Ill.) was added and the chemiluminescence was detected in a Fusion reader (Perkin-Elmer/Packard).

[4] = system: ANF in neonatal cardiomyocytes; test: ANF chemiluminescence detection, dose response; format: cell-based, rat
Procedure: FIGS. 4A-C. […] As in the transfection experiments, phenylephrine (100 µM) induces ANF expression over three-fold. […] (FIGS. 4B and 4C) The graphs show a reduction of the chemiluminent detection of ANF in the culture medium with increasing concentrations of the HDAC inhibitors TSA (FIG. 4B) and sodium butyrate (FIG. 4C) when co-cultured with the hypertrophic stimulants FBS, PE or ET-1.
Chemilumenescence. Neonatal cardiomyocytes were seeded onto 96-well plates and treated for 72 hrs. The cells were washed twice in 1×PBS, fixed in 4% paraformaldehyde/1×PBS, and permeabilized with 0.1% Triton-X100. After blocking, the cells were incubated 1 hr. with 10 μg/ml monoclonal anti-ANF antibody (Biodesign). The wells were washed twice with 1% BSA/1× PBS and then incubated for 1 hr. with goat anti-mouse IgG-Fc-HRP (Jackson Labs, […]) at 1:1000 in 1× PBS/1% BSA. Cells were washed twice with 1% BSA/1×PBS, twice with 1× PBS, then blotted dry. Luminol (Pierce, Rockford, Ill.) was added and the chemiluminescence was detected in a Fusion Plate Reader (Perkin Elmer/Packard).

cultured cardiomyocytes = test: Adenylate kinase release cytotoxicity assay; format: cell-based; conditions: increasing doses: TSA up to 100 nM, sodium butyrate up to 25 nM
Procedure: as §1
Inventors then examined whether increasing doses of TSA and sodium butyrate were cytotoxic to cultured cardiomyocytes. To determine cell mortality, the release of adenylate kinase from cardiomyocytes into the culture medium was assayed. This assay is a known measurement for the integrity of the cell membrane: membranes become permeable in dying cells causing the cells release adenylate kinase.

Structure (SMILES) | transcriptional activity of CMV-Lac Z reporter [1] | phenylephrine-induced endogenous ANF RNA expression [2] | activation of ANF promoter by phenylephrine [3] | ANF promoter activity, inhibitor alone [3] | effect on transformed cells (transformed cells) | also measured
C[C@@H]1NC(=O)[C@H]2CCCN2C(=O)[C@H](CCCCCC(=O)[C@@H]2CO2)NC(=O)[C@@H](C)NC1=O [HC-toxin] | increased the transcriptional activity of the CMV-Lac Z reporter | prevented the phenylephrine-induced ANF response; also recorded: blocks the accumulation of ANF message | did block the promoter's activation by phenylephrine treatment completely; also recorded: prevented the activation of the ANF promoter | did not activate the ANF promoter | – | –
O=C(CCCCCCC(=O)Nc1ccccc1)NO [SAHA, suberoylanilide hydroxamic acid] | – | – | – | – | induce growth arrest, differentiation, or apoptotic cell death of transformed cells | –
O=C(CCCCCCC(=O)Nc1cccnc1)NO [pyroxamide, suberoyl-3-aminopyridineamide hydroxyamic acid] | – | – | – | – | induce growth arrest, differentiation, or apoptotic cell death of transformed cells | inhibition of HDAC (HDAC): potent inhibitors of HDAC in vitro and in vivo
CCCC(=O)[O-].[Na+] [sodium butyrate] | increased the transcriptional activity of the CMV-Lac Z reporter | blocks the accumulation of ANF message | did block the promoter's activation by phenylephrine treatment completely | did not activate the ANF promoter | – | phenylephrine-stimulated protein synthesis, 6 hours (cardiomyocytes; 6 hours co-culture with phenylephrine): had little effect on the stimulation of protein synthesis; protein synthesis induced by PE or serum, 24 hrs (cardiomyocytes; 24 hrs co-treatment): antagonized the protein synthesis normally induced by PE or serum in a dose-dependent manner; minimal concentration that inhibited the hypertrophic response (ANF) of each growth stimulant ([4]; FBS, PE, ET-1): 5 mM; induction of ANF expression by FBS, PE and ET-1 ([4]; increasing concentrations): countered the induction of ANF expression; ANF expression at very low doses ([4]; very low doses (0.2 nM printed for sodium butyrate)): near two-fold increase; phenylephrine-induced endogenous ANF RNA expression ([2]; listed as NaBut): prevented the phenylephrine-induced ANF response; activation of ANF promoter by phenylephrine ([3]; listed as NaBut): prevented the activation of the ANF promoter; adenylate kinase in the culture medium (cell death) (cultured cardiomyocytes): did little to increase adenylate kinase
